Reference: US20120231042A1, “Pharmaceutical Formulation For Producing Rapidly Disintegrating Tablets” (BASF SE, priority 2011, published 2012)

Assay: Film formation test
Type: physicochemical
Details: assessed visually; for Clear film / Notes (film-forming classification): 15% by weight solution in water, dried at 45° C. for 4 hours; for Structure formed after drying (film-forming property): 15% solution dried 4 hours at 45° C., statement in description
Procedure: In various embodiments, to determine the film-forming property, 30.0 g of a 15% strength by weight solution of the sugar or sugar alcohol in water are first prepared at 23° C. This solution is poured out onto glass plates with an indentation (dimension: 20 cm×6.5 cm, indentation 0.3 cm) and dried for 4 hours at 45° C. and then assessed visually. Measurement can take place in ambient air. The ambient air here has a relative humidity of about 40% at 23° C. Drying can take place for example, on the heating plate of a film-drawing instrument. A suitable film-drawing instrument is for example a commercial instrument such as the COATMASTER 509 MC.
Products which are present after the drying operation as a clear film or covering are referred to as “film-forming” If crystals are visible and the mass appears powdery, the substances are classified as “non-film-forming”
To determine the film-forming property, firstly, at 23° C., 30.0 g of a 15% strength by weight solution of the sugar or sugar alcohol in water were prepared. This solution was poured onto glass plates with an indentation (dimension: 20 cm×6.5 cm, indentation 0.3 cm) and dried at 45° C. for 4 hours and then assessed visually. […] Drying was carried out on a heating plate of the film-drawing instrument COATMASTER 509 MC (Erichsen).

| Compound | Clear film | Notes (film-forming classification) | Structure formed after drying (film-forming property) |
| --- | --- | --- | --- |
| OC[C@@H](O)[C@@H](O)[C@H](O)[C@@H](O)CO [Sorbitol] | Yes | Film-forming | clear film/covering |
| OC[C@@H](O)[C@@H](O[C@H]1O[C@H](CO)[C@@H](O)[C@H](O)[C@H]1O)[C@H](O)[C@@H](O)CO [Maltitol] | Yes | Film-forming | clear film/covering |
| OC[C@@H](O)[C@H](O)[C@@H](O)CO [Xylitol] | No | Crystals; non-film-forming | crystals or a powdery structure |
| OC[C@@H](O)[C@@H](O)CO [Erythritol] | No | Crystals; non-film-forming | crystals or a powdery structure |
| OC[C@@H](O)[C@@H](O)[C@H](O)[C@H](O)CO [Mannitol] | No | Crystals; non-film-forming | crystals or a powdery structure |
| OC[C@@H](O)[C@@H](O[C@@H]1O[C@H](CO)[C@H](O)[C@H](O)[C@H]1O)[C@H](O)[C@@H](O)CO [Lactitol] | Yes | Film-forming | clear film/covering |
| OC[C@H]1O[C@@H](O[C@H]2[C@H](O)[C@@H](O)C(O)O[C@@H]2CO)[C@H](O)[C@@H](O)[C@H]1O (stereo partly drawn) [lactose] |  |  | clear film/covering |
| OC[C@H]1O[C@@](CO)(O[C@H]2O[C@H](CO)[C@@H](O)[C@H](O)[C@H]2O)[C@@H](O)[C@@H]1O [sucrose] |  |  | clear film/covering |
| Palatinit | Yes | Film-forming | clear film/covering |
| OC[C@H]1O[C@H](O[C@H]2O[C@H](CO)[C@@H](O)[C@H](O)[C@H]2O)[C@H](O)[C@@H](O)[C@@H]1O [trehalose] |  |  | clear film/covering |
